The values that follow come from ChEMBL document CHEMBL1156040, “Identification and optimisation of novel and selective small molecular weight kinase inhibitors of mTOR” (Bioorg Med Chem Lett, 2009).

Series [1] has as its target T1, Serine/threonine-protein kinase mTOR (Homo sapiens, UniProt P42345). Briefly: Inhibition of mTOR kinase in human HeLa cells by ELISA. The series is classed as cell-based. In general terms: An ELISA detects its analyte on a solid surface through an enzyme-linked reagent.
Series [2] can be described thus: Growth inhibition of human U87MG cells. It counts as functional, U-87MG ATCC. The settings on record: U-87 MG.
For series [3], the target named is Phosphatidylinositol 4,5-bisphosphate 3-kinase catalytic subunit alpha isoform (Homo sapiens, UniProt P42336). Briefly: Inhibition of PI3Kalpha kinase.
Chain of Phosphatidylinositol 4,5-bisphosphate 3-kinase catalytic subunit alpha isoform (P42336 whole entry, canonical isoform): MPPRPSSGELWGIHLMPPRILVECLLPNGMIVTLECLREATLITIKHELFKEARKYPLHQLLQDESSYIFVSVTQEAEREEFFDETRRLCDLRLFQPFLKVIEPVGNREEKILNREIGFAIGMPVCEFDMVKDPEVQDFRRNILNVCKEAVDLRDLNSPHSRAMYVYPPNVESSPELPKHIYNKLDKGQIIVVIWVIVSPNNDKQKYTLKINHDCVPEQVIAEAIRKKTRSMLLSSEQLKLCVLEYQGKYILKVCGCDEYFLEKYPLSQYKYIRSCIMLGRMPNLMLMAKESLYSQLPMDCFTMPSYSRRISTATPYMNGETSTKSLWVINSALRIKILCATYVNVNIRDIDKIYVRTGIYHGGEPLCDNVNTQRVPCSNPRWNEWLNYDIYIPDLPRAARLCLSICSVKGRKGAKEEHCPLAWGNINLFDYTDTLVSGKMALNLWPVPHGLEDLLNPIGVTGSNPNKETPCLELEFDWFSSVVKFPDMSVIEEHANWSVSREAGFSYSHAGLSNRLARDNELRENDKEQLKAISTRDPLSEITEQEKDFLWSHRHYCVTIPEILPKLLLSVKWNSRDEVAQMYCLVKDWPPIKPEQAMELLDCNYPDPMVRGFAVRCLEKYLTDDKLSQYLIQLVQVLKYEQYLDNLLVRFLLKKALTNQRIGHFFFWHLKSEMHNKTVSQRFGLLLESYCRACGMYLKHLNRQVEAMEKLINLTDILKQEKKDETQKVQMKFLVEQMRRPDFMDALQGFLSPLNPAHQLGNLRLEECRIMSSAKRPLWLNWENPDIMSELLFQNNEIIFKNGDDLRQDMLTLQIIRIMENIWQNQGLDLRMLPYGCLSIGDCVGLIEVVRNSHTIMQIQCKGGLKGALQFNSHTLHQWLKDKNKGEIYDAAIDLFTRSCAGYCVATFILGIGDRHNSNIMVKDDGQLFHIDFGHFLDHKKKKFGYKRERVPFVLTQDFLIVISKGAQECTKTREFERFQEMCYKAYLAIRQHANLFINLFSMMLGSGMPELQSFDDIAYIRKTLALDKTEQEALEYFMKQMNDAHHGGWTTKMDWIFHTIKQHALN
The test system of the next series is MDR1 (human). Briefly: Apparent permeability from apical to basolateral side in MDCK2 cells expressing human MDR1 at 10 uM. The settings on record: dog, MDCK-MDR1. It counts as ADME, cell-based, Canis lupus familiaris, MDCK-II.
For series [4], the target named is Serine-protein kinase ATM (Homo sapiens, UniProt Q13315). Briefly: Inhibition of ATM.
Chain of Serine-protein kinase ATM (Q13315 whole entry): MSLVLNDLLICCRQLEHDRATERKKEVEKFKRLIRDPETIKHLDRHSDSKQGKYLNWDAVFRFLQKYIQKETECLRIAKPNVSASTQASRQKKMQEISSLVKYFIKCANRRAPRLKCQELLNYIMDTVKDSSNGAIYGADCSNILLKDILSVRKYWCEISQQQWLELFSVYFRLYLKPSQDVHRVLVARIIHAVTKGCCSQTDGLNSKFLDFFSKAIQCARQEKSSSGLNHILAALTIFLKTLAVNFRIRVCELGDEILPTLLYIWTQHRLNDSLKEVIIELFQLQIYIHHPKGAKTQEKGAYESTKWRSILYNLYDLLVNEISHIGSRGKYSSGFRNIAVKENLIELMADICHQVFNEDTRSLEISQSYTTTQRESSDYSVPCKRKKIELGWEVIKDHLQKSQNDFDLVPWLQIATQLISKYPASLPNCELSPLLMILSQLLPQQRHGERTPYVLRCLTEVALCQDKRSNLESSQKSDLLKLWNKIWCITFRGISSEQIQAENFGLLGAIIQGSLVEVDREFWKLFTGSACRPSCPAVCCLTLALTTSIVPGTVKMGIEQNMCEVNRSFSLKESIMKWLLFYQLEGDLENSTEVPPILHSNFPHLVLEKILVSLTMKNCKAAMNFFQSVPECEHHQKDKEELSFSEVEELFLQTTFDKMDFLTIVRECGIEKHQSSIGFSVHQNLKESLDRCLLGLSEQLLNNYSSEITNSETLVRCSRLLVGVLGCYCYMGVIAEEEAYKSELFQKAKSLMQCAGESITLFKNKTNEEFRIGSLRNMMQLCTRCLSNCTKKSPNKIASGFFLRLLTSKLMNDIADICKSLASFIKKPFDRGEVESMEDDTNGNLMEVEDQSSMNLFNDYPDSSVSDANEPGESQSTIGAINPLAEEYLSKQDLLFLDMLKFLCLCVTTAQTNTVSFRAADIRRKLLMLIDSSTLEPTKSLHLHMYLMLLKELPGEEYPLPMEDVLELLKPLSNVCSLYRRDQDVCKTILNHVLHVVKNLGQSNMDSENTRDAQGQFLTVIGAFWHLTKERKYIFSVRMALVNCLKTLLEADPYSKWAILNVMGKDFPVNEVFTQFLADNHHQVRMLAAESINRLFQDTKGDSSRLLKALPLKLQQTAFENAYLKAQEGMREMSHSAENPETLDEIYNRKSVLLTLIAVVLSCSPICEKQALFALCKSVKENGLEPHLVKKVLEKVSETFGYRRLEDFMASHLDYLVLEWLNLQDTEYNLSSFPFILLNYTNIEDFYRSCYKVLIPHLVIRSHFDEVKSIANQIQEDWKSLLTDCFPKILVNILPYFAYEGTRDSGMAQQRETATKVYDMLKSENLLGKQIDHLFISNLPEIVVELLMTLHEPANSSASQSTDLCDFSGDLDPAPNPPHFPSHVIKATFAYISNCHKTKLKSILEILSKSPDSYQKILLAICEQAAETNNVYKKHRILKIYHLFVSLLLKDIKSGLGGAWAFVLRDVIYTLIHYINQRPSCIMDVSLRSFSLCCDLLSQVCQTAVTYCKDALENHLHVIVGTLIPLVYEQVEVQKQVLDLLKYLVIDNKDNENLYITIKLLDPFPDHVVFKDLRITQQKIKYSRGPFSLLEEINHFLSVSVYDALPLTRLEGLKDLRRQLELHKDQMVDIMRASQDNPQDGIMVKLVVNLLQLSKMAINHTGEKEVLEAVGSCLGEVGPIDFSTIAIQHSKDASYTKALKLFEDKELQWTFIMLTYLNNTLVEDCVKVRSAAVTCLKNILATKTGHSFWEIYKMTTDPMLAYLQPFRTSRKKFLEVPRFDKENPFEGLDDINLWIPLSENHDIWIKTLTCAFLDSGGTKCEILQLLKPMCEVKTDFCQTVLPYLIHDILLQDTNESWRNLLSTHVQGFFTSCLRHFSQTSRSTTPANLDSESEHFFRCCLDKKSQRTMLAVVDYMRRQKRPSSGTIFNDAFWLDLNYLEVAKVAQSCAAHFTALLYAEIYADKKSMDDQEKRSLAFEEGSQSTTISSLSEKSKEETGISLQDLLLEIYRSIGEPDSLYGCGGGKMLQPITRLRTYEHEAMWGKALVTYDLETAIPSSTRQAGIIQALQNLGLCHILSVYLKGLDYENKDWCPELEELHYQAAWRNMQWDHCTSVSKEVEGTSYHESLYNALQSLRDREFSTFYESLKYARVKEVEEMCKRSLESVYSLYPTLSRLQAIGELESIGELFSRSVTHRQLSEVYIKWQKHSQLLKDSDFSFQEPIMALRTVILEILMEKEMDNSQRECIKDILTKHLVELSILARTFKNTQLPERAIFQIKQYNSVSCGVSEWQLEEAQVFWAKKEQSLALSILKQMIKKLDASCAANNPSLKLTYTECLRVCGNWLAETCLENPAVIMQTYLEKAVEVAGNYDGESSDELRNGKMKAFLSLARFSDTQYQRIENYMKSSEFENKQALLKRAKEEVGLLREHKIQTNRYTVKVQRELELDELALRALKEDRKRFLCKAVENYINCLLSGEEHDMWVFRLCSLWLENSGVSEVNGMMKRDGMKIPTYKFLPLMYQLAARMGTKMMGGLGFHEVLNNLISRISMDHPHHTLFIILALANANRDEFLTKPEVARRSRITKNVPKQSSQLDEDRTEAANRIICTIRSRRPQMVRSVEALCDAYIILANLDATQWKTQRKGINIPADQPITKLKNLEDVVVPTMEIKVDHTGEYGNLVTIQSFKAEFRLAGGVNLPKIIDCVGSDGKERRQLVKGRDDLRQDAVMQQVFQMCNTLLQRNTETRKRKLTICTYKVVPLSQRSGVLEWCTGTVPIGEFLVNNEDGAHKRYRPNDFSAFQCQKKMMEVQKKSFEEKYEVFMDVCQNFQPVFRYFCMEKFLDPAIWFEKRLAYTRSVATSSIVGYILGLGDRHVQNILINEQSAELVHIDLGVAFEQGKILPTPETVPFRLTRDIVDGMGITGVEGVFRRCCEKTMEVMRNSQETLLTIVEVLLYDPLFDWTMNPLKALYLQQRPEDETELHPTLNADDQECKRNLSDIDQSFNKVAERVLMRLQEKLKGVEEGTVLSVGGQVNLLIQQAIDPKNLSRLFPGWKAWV
The target of series [5] is T1, Serine/threonine-protein kinase mTOR. Briefly: Inhibition of mTOR kinase in human HeLa cells at 10 uM by ELISA. It counts as cell-based. Further details: scale not given: the % may be the effect or the level left.

The structures appear in SMILES notation.

A word on the IC50: it is the point on the concentration scale where inhibition reaches its midpoint. Compound `c1cc2cc(-c3ccc(-c4cc(N5CCOCC5)nc(N5CCOCC5)n4)o3)ccc2[nH]1` registered an IC50 in series [1] greater than 10 µM.

One may read the GI50 as the concentration that inhibits growth by half. As to `COc1cc(-c2cn(-c3nc(N4CCOCC4)nc(N4CCOCC4)n3)cn2)cc(OC)c1O`, the GI50 in series [2] came to 24 µM. Further, the IC50 in series [3] was greater than 10 µM.

For the compound `COc1cc(-c2ccc(-c3ccnc(N4CCOCC4)n3)o2)cc(OC)c1O`, it took 3.7 µM to inhibit growth in series [2] by half (GI50). Moreover, the IC50 in series [1] is 0.052 µM; in series [3] it was greater than 10 µM.

A word on the Papp A→B: it is the apparent permeability from the apical to the basolateral side of a cell layer. For `OCc1cccc(-c2ccc(-c3cc(N4CCOCC4)nc(N4CCOCC4)n3)o2)c1`, the apical-to-basolateral permeability (Papp A→B) at 10 µM in the series on MDR1 (human) is 33 ×10⁻⁶ cm/s.

On to `COc1cc(/C=N/Nc2nc(N3CCOCC3)nc(N3CCOCC3)n2)cc(OC)c1O`, for which the IC50 in series [1] is 0.27 µM; in series [4], greater than 10 µM; in series [3], greater than 10 µM.

As to `COc1cc(-c2csc(-c3ccnc(N4CCOCC4)n3)n2)cc(OC)c1O`, halving of growth in series [2] (GI50) required 21 µM. For the same compound, the IC50 in series [1] was 0.18 µM; in series [3], greater than 10 µM.

Turning to `Oc1cccc(-c2ccc(-c3cc(N4CCOCC4)nc(N4CCOCC4)n3)o2)c1`, in the series with MDR1 (human), the Papp A→B at 10 µM came out at 2.2 ×10⁻⁶ cm/s.

In the case of `COc1cc(-c2ccc(-c3ccnc(N4CCOCC4)n3)s2)cc(OC)c1O`, the Activity in series [5] is less than 50%.

As to `COc1cc(-c2ccc(-c3cc(N4CCOCC4)nc(N4CCOCC4)n3)o2)cc(OC)c1O`, halving of growth in series [2] (GI50) required 16 µM. The IC50 in series [1] was 0.023 µM; in series [3], greater than 10 µM.

Consider `COc1cc(-c2cnn(-c3ccnc(N4CCOCC4)n3)c2)cc(OC)c1O`, for which, in series [5], the Activity was less than 50%.
